Details: for log10 BCF / log10 biotransformation half-life (days): fish

Structure (SMILES) | melting point | boiling point | also measured
O=P(OC(CCl)CCl)(OC(CCl)CCl)OC(CCl)CCl | 27 °C |  | ready biodegradability: not readily biodegradable; log10 BCF: 1.08; log10 biotransformation half-life (days): -0.52
O=c1c2cc(F)ccc2nc(-n2cncn2)n1-c1ccc(Cl)cc1Cl | 192 °C |  | log10 Henry constant (atm·m³/mol): -10.7; log10 vapour pressure (mmHg): -10.3
CC(C)CCOC(=O)C(=O)OCCC(C)C | -9 °C | 268 °C | 
N#CCCCC#N | -29 °C | 286 °C | log10 vapour pressure (mmHg): -2.08
CC(C)C#N | -71.5 °C | 104 °C | log10 Koa: 2.87; log10 vapour pressure (mmHg): 1.51; ready biodegradability: readily biodegradable
Cc1c2ccccc2cc2ccc3ccccc3c12 | 138 °C |  | 
CCCCC=C(C)C |  | 123 °C | log10 vapour pressure (mmHg): 1.25
Cc1ccsc1 | -69 °C | 116 °C | log10 vapour pressure (mmHg): 1.35; ready biodegradability: not readily biodegradable; log10 BCF: 0.72; log10 biotransformation half-life (days): -1.27
CCOC(=O)c1ccccc1Br |  | 254 °C | 
CN1CC[C@]23c4c5ccc(O)c4O[C@H]2C(=O)CC[C@@]3(O)[C@H]1C5 | 248 °C |  | 
c1ccc(CCCc2ccccc2)cc1 | 6 °C | 300 °C | 
CCCCCC[C@@H](O)C/C=C\CCCCCCCC(=O)O | 5.5 °C |  | 
CCN(CC)C(=O)[C@@H]1C=C2c3cccc4[nH]cc(c34)C[C@H]2N(C)C1 | 82.5 °C |  | 
CCC(C(=O)NC(=O)NC(C)=O)c1ccccc1 (centres undefined) | 100 °C |  | 
O=CNC(Nc1ccc(Cl)c(Cl)c1)C(Cl)(Cl)Cl (centres undefined) | 135 °C |  | 
CCCCCCCC/C=C\CCCCCCCC(=O)[O-].[Na+] | 234 °C |  | 
Brc1cc(Br)c(Br)cc1Br | 182 °C |  | log10 BCF: 3.59; log10 biotransformation half-life (days): 1.35
C=CCOCCC |  | 91 °C | log10 vapour pressure (mmHg): 1.78
C=CCCC#N |  | 140 °C | 
Fc1ccc(-c2ccccc2)cc1 | 74.2 °C | 253 °C | 
O=C1c2c(O)cccc2C(=O)C2C(O)=CC=CC12 (centres undefined) | 280 °C |  | 

Structure (SMILES) | melting point | boiling point | also measured
CCN1C(=O)NC(c2ccccc2)C1=O (centres undefined) | 94 °C |  | 
OCCN1CCN(CCCN2c3ccccc3C=Cc3ccccc32)CC1 | 100 °C |  | 
c1cc2c(c3c1CCCC3)CCCC2 | 16.7 °C | 295 °C | log10 biotransformation half-life (days): 0.76
Clc1ccc(C(c2ccccc2Cl)C(Cl)(Cl)Cl)cc1 (centres undefined) |  |  | log10 Koa: 9.45; log10 vapour pressure (mmHg): -5.87; log10 biotransformation half-life (days): 1.71
S=C=Nc1ccc(N=C=S)cc1 | 132 °C |  | 
CC1CCCCC1 | -127 °C | 101 °C | log10 Henry constant (atm·m³/mol): -0.367; log10 Koa: 3.03; log10 biodegradation half-life (days): 0.602; log10 vapour pressure (mmHg): 1.66; log10 BCF: 2.27; log10 biotransformation half-life (days): 0.57
Nc1ccncn1 | 155 °C |  | 
Nc1ccc2cc3ccc(N)cc3nc2c1 | 285 °C |  | 
CN(C)C(CSS(=O)(=O)c1ccccc1)CSS(=O)(=O)c1ccccc1 | 83.5 °C |  | 
CC1=CC[C@@H]2[C@H]3[C@@H](C(C)C)CC[C@]2(C)[C@@H]13 |  | 248 °C | 
Cc1ccc(O)cc1N | 158 °C |  | 
CCCCCCCCCCCCCCCCCCCCCCCCCCCCO | 83.3 °C |  | ready biodegradability: readily biodegradable
C=CCCl | -134 °C | 45.1 °C | log10 vapour pressure (mmHg): 2.57; ready biodegradability: readily biodegradable; log10 BCF: 0.7; log10 biotransformation half-life (days): -0.93
Cc1cc2c(cc1C)CCCC2 | 10 °C | 252 °C | 
CCCCCCCCCC | -29.7 °C | 174 °C | log10 biodegradation half-life (days): 0.954; log10 vapour pressure (mmHg): 0.155; ready biodegradability: readily biodegradable
O=C(OC(=O)C(F)(F)C(F)(F)C(F)(F)F)C(F)(F)C(F)(F)C(F)(F)F | -43 °C | 106 °C | 
Clc1ccccc1-c1cccc(Cl)c1Cl |  |  | log10 Henry constant (atm·m³/mol): -3.7
CCCS(=O)(=O)O | 7.5 °C |  | 
CN(C)C(=O)OC1=CC(=O)CC(C)(C)C1 | 45.5 °C |  | 
Cc1cccc(CO)c1 |  | 216 °C | 
FC(F)(Cl)C(Cl)(Cl)Cl | 40.6 °C | 91.5 °C | log10 vapour pressure (mmHg): 1.78

Structure (SMILES) | melting point | boiling point | also measured
Ic1cccc(-c2ccccc2)c1 | 26.5 °C |  | 
NC(=O)c1cc(Cl)cc(Cl)c1N | 162 °C |  | 
Clc1cccc2cccnc12 | -20 °C | 288 °C | 
CN(C)C(=O)Nc1ccccc1 | 134 °C |  | log10 Koc (L/kg): 1.4; log10 vapour pressure (mmHg): -4.43; ready biodegradability: readily biodegradable
CCCCCCCCCCCCCCCCCCN=C=O | 20 °C | 300 °C | ready biodegradability: not readily biodegradable
C=C1C(=O)OC2[C@H]1CC[C@H](C)[C@@H]1C=CC(=O)[C@@]21C (some centres undefined) | 146 °C |  | 
CCCCCCCCCCCCCCCBr | 19 °C | 322 °C | log10 vapour pressure (mmHg): -3.83
CCCCCCCCCCCCOS(=O)(=O)c1ccccc1 |  |  | ready biodegradability: readily biodegradable
CCOC(=O)C(Br)C(=O)OCC | -54 °C |  | 
O=C1CCCc2ccccc21 | 8 °C |  | 
CCCCCCCCCCCCCCCCCC(=O)OC[C@@H](O)[C@H]1OC[C@H](O)[C@H]1O | 57 °C |  | 
CCN(CC)C(=O)c1cccc(C)c1 | -45 °C | 290 °C | log10 vapour pressure (mmHg): -2.7; ready biodegradability: not readily biodegradable; log10 BCF: 0.38
C=CCC(O)C=C (centres undefined) |  | 134 °C | 
CC1=C(/C=C/C(C)=C/C=C/C(C)=C/CO)C(C)(C)CCC1 | 63.5 °C |  | 
CCOC(=O)C(=O)CC(C)=O | 18 °C | 214 °C | 
Cc1cccc2c1CCC2 |  | 205 °C | log10 biodegradation half-life (days): 0.301
CC1(C)CC=CCC1 | -74.4 °C | 117 °C | 
O=C(O)c1cccc2cccc(Cl)c12 | 172 °C |  | 
Cc1c2ccccc2c(C)c2ccccc12 | 183 °C |  | 
